From PMC10472371, “Discovery of E2730, a novel selective uncompetitive GAT1 inhibitor, as a candidate for anti‐seizure medication” (Epilepsia Open, 2023)
pKd: −log10 of the molar value.

Assays:
[1] = biological target: T1, rat brain synaptosomal membranes (Rattus norvegicus, UniProt P23978); assay: Saturation binding of [3H]E2730 in rat brain synaptosomal membranes; conditions: [3H]E2730, Scatchard plot
T1 construct: Synaptosomal membranes were prepared using the whole brain without cerebellum, brainstem, or olfactory bulb; from tissue; host or cells: rat whole brain without cerebellum, brainstem or olfactory bulb; synaptosomal membranes
Method: (§1) Synaptosomal membranes were prepared using the whole brain without cerebellum, brainstem, or olfactory bulb from Sprague Dawley rats (male, 7 weeks old) or human cerebral cortex based on Fuks et al.[10] and Hanada et al.[11] Synaptosomal membranes (0.4 mg protein/tube) were incubated with 9.8–5000 nM [^3H]E2730 for 120 minutes at 4°C. Non‐specific binding was defined as the residual binding observed in the presence of 1 mM unlabeled E2730. […] The filters were washed three times with ice‐cold 50 mM Tris–HCl buffer (pH 7.4) and incubated overnight in a scintillator (PerkinElmer), then the radioactivity was measured by a liquid scintillation counter (PerkinElmer).

[2] = biological target: T2, human brain synaptosomal membranes (Homo sapiens, UniProt P30531); assay: Saturation binding of [3H]E2730 in human brain synaptosomal membranes
T2 construct: from tissue; host or cells: human cerebral cortex; synaptosomal membranes
T2 sequence (P30531 whole entry): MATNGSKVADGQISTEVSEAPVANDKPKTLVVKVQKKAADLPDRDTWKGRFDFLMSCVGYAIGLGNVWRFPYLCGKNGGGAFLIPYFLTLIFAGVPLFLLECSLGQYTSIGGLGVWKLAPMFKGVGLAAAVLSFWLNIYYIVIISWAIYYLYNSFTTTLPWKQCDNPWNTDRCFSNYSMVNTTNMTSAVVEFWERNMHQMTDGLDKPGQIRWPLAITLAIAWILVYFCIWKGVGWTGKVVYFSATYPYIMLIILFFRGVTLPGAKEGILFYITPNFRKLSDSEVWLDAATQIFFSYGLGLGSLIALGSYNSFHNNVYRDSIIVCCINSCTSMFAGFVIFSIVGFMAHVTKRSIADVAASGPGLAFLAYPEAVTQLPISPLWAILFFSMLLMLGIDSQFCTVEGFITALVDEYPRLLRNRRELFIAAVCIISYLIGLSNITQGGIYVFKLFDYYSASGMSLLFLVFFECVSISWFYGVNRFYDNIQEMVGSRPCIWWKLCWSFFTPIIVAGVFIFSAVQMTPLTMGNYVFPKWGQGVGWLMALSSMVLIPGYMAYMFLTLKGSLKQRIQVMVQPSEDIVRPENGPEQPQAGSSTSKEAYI
Method: as §1

[3] = biological target: T3, hGAT1 (Homo sapiens, UniProt P30531); assay: [3H]GABA uptake in hGAT1 cells under different GABA concentrations; assay type: cell-based; conditions: [3H]GABA 0.01-500 μM
T3 construct: expressed in transfected cells; host or cells: HEK293
T3 sequence (P30531 whole entry): as above
Method: hGAT1 stably expressing HEK293 cells were plated onto 96‐well microtiter plates at a density of 4.0 × 10^4 cells/well in DMEM and incubated overnight at 37°C in a 5% CO2 atmosphere. After washing the cells with assay buffer, E2730 (0.0128–1000 μM), tiagabine (Tokyo Chemical Industry; 0.000256–100 μM), or vehicle was added to the plate in the presence of 1% DMSO. After adding [^3H]GABA (0.01–500 μM), the plate was incubated for 5 minutes at 37°C in a 5% CO2 atmosphere. The radioactivity of the treated cells was assessed following the same method described above.

[4] = tested on: Scn1a+/- mice; assay: Hyperthermia-induced seizures in Scn1a+/- mice (Dravet syndrome model); assay type: in vivo, mouse
Method: Scn1a heterozygous mutant (Scn1a ^+/−) mice, a model of Dravet Syndrome (DS), and the littermate wild‐type (Scn1a ^+/+) mice (male, 24–28 days postnatal; Jackson Laboratory, US) received E2730 (10, 20 mg/kg) or vehicle orally 1 hour before hyperthermia stimulation. A rectal temperature probe (Physitemp, NJ) was fitted at 50 minutes post‐treatment, and mice were acclimated to the probe and test chamber for 10 minutes. At 1‐hour post‐treatment, core body temperature was elevated by a heat lamp connected to a feedback temperature controller (Physitemp) by 0.5°C every 2 minutes until a maximum of 42.5°C was reached. The threshold body temperatures for generalized tonic–clonic seizures were recorded for each mouse. The cut‐off time was set as 180 seconds.

[5] = tested on: corneal kindling mice; assay: Corneal kindling in mice; assay type: in vivo; conditions: Mus musculus; oral, 1 hour before electrical stimulation; read-out: ED50 (95% CI) in corneal kindling mice
Text: A corneal kindling mouse model was developed following the method described by Potschka and Löscher.[7] Male C57BL/6N mice (5 weeks old; Charles River Laboratories Japan, Japan) were stimulated using corneal electrodes (4 mA, 50 Hz, 3‐second duration each) twice daily for 10 consecutive days, and stimulated mice were observed and rated based on the Racine's scale (0, no seizure; 1, mild facial clonus and eye blinking; 2, severe facial clonus, head nodding, or chewing; 3, unilateral or alternating forelimb clonus; 4, bilateral forelimb clonus and rearing; 5, bilateral forelimb clonus with rearing and falling). Mice with scores ≥3 were deemed epileptic, whereas mice with scores <3 were deemed non‐epileptic. Mice rated 4 or 5 (i.e. fully kindled mice) were used for drug evaluation.

[6] = biological target: T1, rat brain synaptosomal membranes; assay: Competitive displacement of [3H]E2730 binding with ASMs; conditions: 20 nM [3H]E2730; unlabeled E2730 0.1-10 μM; ASMs at 10-3000 μM
Method: Unlabeled E2730 (0.1–10 μM) was also assessed to confirm a representative displacement. Non‐specific binding was defined as the residual binding observed in the presence of 1 mM unlabeled E2730. Radioactivity of the synaptosome‐bound radioligand was measured in the same way as described above.

[7] = Accelerating rotarod test in mice (motor coordination); conditions: male, ddY, mouse, in vivo, oral, 1 hour before test, read-out: TD50 (95% CI) in mouse rotarod test
Method: Motor incoordination is one of the most common AEs associated with the use of ASMs.[9] Therefore, motor coordination was evaluated in mice receiving E2730 to assess if it is a new ASM candidate with a wide margin between therapeutic effects and AEs. E2730 (50–400 mg/kg) or vehicle was orally administered in ddY mice (male, 5 weeks old) 1 hour before the rotarod test, and the latency for mice to fall off the rod was measured. The rod rotation of the rotarod apparatus (Muromachi Kikai) was continuously accelerated from 0 to 40 rpm in a cut‐off time of 180 seconds.

[8] = tested on: amygdala kindling rats; assay: Amygdala kindling in rats; assay type: in vivo, rat
Text: A tripolar electrode was implanted into the basolateral amygdala of Wistar‐Kyoto rats (male, 7 weeks old; Charles River Laboratories Japan, Japan). After at least 5 days of recovery, the amygdala was stimulated using an electronic stimulator at currents starting at 0.04 mA (50 Hz, 1 millisecond monophasic square‐wave pulses, 1‐second duration each) then increasing by 25% to a 30‐second duration until the after‐discharge threshold (ADT) was attained. ADT was defined as the current at which abnormal electroencephalogram and at least Racine's stage‐1 seizure behavior were observed. In the Racine's stage, seizure severity was classified as: 1, mouth and facial movements; 2, head nodding; 3, forelimb clonus; 4, rearing; 5, rearing and falling. From the next day onwards, electrical stimulation at the previously determined ADT was performed once daily in each rat. The rats showing ≥3 consecutive Racine stage‐5 seizures were deemed epileptic and used for drug evaluation. The pre‐ADT (i.e. baseline) seizure threshold of each rat was established prior to drug administration. After >1 hour following the determination of pre‐ADT seizure threshold, E2730 (5–50 mg/kg), levetiracetam (25 mg/kg), or vehicle was orally administered to the rats. One hour after the administration, the post‐ADT seizure threshold of each rat was ascertained, and the ratios of post‐ADT to pre‐ADT readings were analyzed.

Question: For NS(=O)(=O)N[C@H]1c2c(F)cc(F)cc2CC1(F)F [E2730], which Bmax [1] is on record?
Answer: 3419 fmol/mg protein

Question: What about the pKd [1] of the same compound?
Answer: 6.26

Question: What about the Bmax [2] of the same compound?
Answer: 2503 fmol/mg protein

Question: What about the pKd [2] of the same compound?
Answer: 6.15

Question: And the “dependence of GAT1 inhibition on ambient GABA concentration” value [3]?
Answer: positively correlated with the ambient GABA concentration

Question: What about the “seizure occurrence in littermate WT (Scn1a+/+) mice” value ([4]; 20 mg/kg, maximum temperature of 42.5°C) of the same compound?
Answer: No seizures occurred

Question: And the “median threshold body temperature for generalized tonic-clonic seizures” value ([4]; Scn1a+/- mice, 10 mg/kg oral)?
Answer: 41.2 °C

Question: What about the “median threshold body temperature for generalized tonic-clonic seizures” value ([4]; Scn1a+/- mice, 20 mg/kg oral) of the same compound?
Answer: 42.4 °C

Question: What about the “Minimum effective dose, hyperthermia-induced seizures” value ([4]; Scn1a+/- mice, oral, footnote a: minimum effective dose) of the same compound?
Answer: 10 mg/kg

Question: And the ED50 [5]?
Answer: 7.9 mg/kg

Question: And the “displacement of [3H]E2730 binding” value [6]?
Answer: displaced the radiolabeled [^3H]E2730 in a concentration‐dependent manner

Question: What about the TD50 at 1 h [7] of the same compound?
Answer: 350 mg/kg

Question: And the post-ADT/pre-ADT ratio ([8]; E2730 10 mg/kg oral, 1 hour after administration)?
Answer: 129%

Question: What about the post-ADT/pre-ADT ratio ([8]; E2730 20 mg/kg oral) of the same compound?
Answer: 159%

Question: What about the post-ADT/pre-ADT ratio ([8]; E2730 50 mg/kg oral) of the same compound?
Answer: 191%

Question: And the “Minimum effective dose, amygdala kindling (rat)” value ([8]; oral, footnote a: minimum effective dose)?
Answer: 10 mg/kg
